Laboratory results as given in PubChem BioAssay AID2060613 (Molecular Pharmacology Branch, DTP, NCI, 2025).

Tested on: 233499-124-R-J3-PDC complex spheroid viability
Assay: Anticancer human tumor 233499-124-R-J3-PDC patient-derived colon adenocarcinoma cell line growth inhibition [CLK]
Details: for IC50: curve of first compound; for viability, T/C: stronger effect = lower value
In short: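 Multi-cell-type spheroids combined patient-derived tumor cells with HUVEC endothelial cells and human mesenchymal stem cells. Paired agents were dosed in half-log steps down from about clinical Cmax, or from 10 microM where Cmax was unknown.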

[1] = second compound 0.0316 µM, first compound 0.0316 µM
[2] = second compound 0.0316 µM, first compound 0.1 µM
[3] = second compound 0.0316 µM, first compound 0.316 µM
[4] = second compound 0.0316 µM, first compound 1 µM
[5] = second compound 0.0316 µM, first compound 3.16 µM
[6] = second compound 0.0316 µM, first compound 10 µM
[7] = second compound 0.1 µM, first compound 0.0316 µM
[8] = second compound 0.1 µM, first compound 0.1 µM
[9] = second compound 0.1 µM, first compound 0.316 µM
[10] = second compound 0.1 µM, first compound 1 µM
[11] = second compound 0.1 µM, first compound 3.16 µM
[12] = second compound 0.1 µM, first compound 10 µM
[13] = second compound 0.316 µM, first compound 0.0316 µM
[14] = second compound 0.316 µM, first compound 0.1 µM
[15] = second compound 0.316 µM, first compound 0.316 µM
[16] = second compound 0.316 µM, first compound 1 µM
[17] = second compound 0.316 µM, first compound 3.16 µM
[18] = second compound 0.316 µM, first compound 10 µM
[19] = second compound 1 µM, first compound 0.0316 µM
[20] = second compound 1 µM, first compound 0.1 µM
[21] = second compound 1 µM, first compound 0.316 µM
[22] = second compound 1 µM, first compound 1 µM
[23] = second compound 1 µM, first compound 3.16 µM
[24] = second compound 1 µM, first compound 10 µM
[25] = second compound 3.16 µM, first compound 0.0316 µM
[26] = second compound 3.16 µM, first compound 0.1 µM
[27] = second compound 3.16 µM, first compound 0.316 µM
[28] = second compound 3.16 µM, first compound 1 µM
[29] = second compound 3.16 µM, first compound 3.16 µM
[30] = second compound 3.16 µM, first compound 10 µM
[31] = second compound 10 µM, first compound 0.0316 µM
[32] = second compound 10 µM, first compound 0.1 µM
[33] = second compound 10 µM, first compound 0.316 µM
[34] = second compound 10 µM, first compound 1 µM
[35] = second compound 10 µM, first compound 3.16 µM
[36] = second compound 10 µM, first compound 10 µM
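Further: spheroids exposed to the drug combinations for seven days.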
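Wherever viability, T/C is given: percent viability relative to DMSO vehicle control wells taken as 100%.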

CC(C)CC(NC(=O)C(Cc1ccccc1)NC(=O)c1cnccn1)B(O)O (stereo unspecified) + CN1CCN(c2cc(C(=O)Nc3cc4cc(-c5cnn(C)c5)ccc4cn3)ccn2)CC1
IC50 (second compound 0.0316 µM): 5.53 nM
IC50 (second compound 0.1 µM): 5.01 nM
IC50 (second compound 0.316 µM): 5.27 nM
IC50 (second compound 1 µM): < 0.949 nM
IC50 (second compound 3.16 µM): < 0.949 nM
IC50 (second compound 10 µM): < 0.949 nM
viability, T/C (second compound 0.0316 µM, first compound 0.000949 µM): 97.8%
viability, T/C (second compound 0.0316 µM, first compound 0.003 µM): 113%
viability, T/C (second compound 0.0316 µM, first compound 0.00949 µM): 0.79%
viability, T/C (second compound 0.0316 µM, first compound 0.03 µM): 0.19%
viability, T/C (second compound 0.0316 µM, first compound 0.0949 µM): 0.17%
viability, T/C (second compound 0.0316 µM, first compound 0.3 µM): 0.17%
viability, T/C (second compound 0.1 µM, first compound 0.000949 µM): 86.1%
viability, T/C (second compound 0.1 µM, first compound 0.003 µM): 93.5%
viability, T/C (second compound 0.1 µM, first compound 0.00949 µM): 0.23%
viability, T/C (second compound 0.1 µM, first compound 0.03 µM): 0.2%
viability, T/C (second compound 0.1 µM, first compound 0.0949 µM): 0.18%
viability, T/C (second compound 0.1 µM, first compound 0.3 µM): 0.17%
viability, T/C (second compound 0.316 µM, first compound 0.000949 µM): 96.5%
viability, T/C (second compound 0.316 µM, first compound 0.003 µM): 99%
viability, T/C (second compound 0.316 µM, first compound 0.00949 µM): 0.2%
viability, T/C (second compound 0.316 µM, first compound 0.03 µM): 0.17%
viability, T/C (second compound 0.316 µM, first compound 0.0949 µM): 0.18%
viability, T/C (second compound 0.316 µM, first compound 0.3 µM): 0.17%
viability, T/C (second compound 1 µM, first compound 0.000949 µM): 1.6%
viability, T/C (second compound 1 µM, first compound 0.003 µM): 0.82%
viability, T/C (second compound 1 µM, first compound 0.00949 µM): 0.17%
viability, T/C (second compound 1 µM, first compound 0.03 µM): 0.15%
viability, T/C (second compound 1 µM, first compound 0.0949 µM): 0.54%
viability, T/C (second compound 1 µM, first compound 0.3 µM): 0.13%
viability, T/C (second compound 3.16 µM, first compound 0.000949 µM): 0.76%
viability, T/C (second compound 3.16 µM, first compound 0.003 µM): 0.84%
viability, T/C (second compound 3.16 µM, first compound 0.00949 µM): 0.17%
viability, T/C (second compound 3.16 µM, first compound 0.03 µM): 0.18%
viability, T/C (second compound 3.16 µM, first compound 0.0949 µM): 0.19%
viability, T/C (second compound 3.16 µM, first compound 0.3 µM): 0.33%
viability, T/C (second compound 10 µM, first compound 0.000949 µM): 0.45%
viability, T/C (second compound 10 µM, first compound 0.003 µM): 0.34%
viability, T/C (second compound 10 µM, first compound 0.00949 µM): 0.24%
viability, T/C (second compound 10 µM, first compound 0.03 µM): 0.24%
viability, T/C (second compound 10 µM, first compound 0.0949 µM): 0.22%
viability, T/C (second compound 10 µM, first compound 0.3 µM): 0.19%

CC1(C)CCC(CN2CCN(c3ccc(C(=O)NS(=O)(=O)c4ccc(NCC5CCOCC5)c([N+](=O)[O-])c4)c(Oc4cnc5[nH]ccc5c4)c3)CC2)=C(c2ccc(Cl)cc2)C1 + CN1CCN(c2cc(C(=O)Nc3cc4cc(-c5cnn(C)c5)ccc4cn3)ccn2)CC1
IC50 (second compound 0.0316 µM): 6390 nM
IC50 (second compound 0.1 µM): 6370 nM
IC50 (second compound 0.316 µM): 5740 nM
IC50 (second compound 1 µM): < 31.6 nM
IC50 (second compound 3.16 µM): < 31.6 nM
IC50 (second compound 10 µM): < 31.6 nM
viability, T/C [1]: 93.1%
viability, T/C [2]: 104%
viability, T/C [3]: 102%
viability, T/C [4]: 112%
viability, T/C [5]: 113%
viability, T/C [6]: 15.2%
viability, T/C [7]: 96.4%
viability, T/C [8]: 109%
viability, T/C [9]: 100%
viability, T/C [10]: 109%
viability, T/C [11]: 112%
viability, T/C [12]: 14.5%
viability, T/C [13]: 86.1%
viability, T/C [14]: 97%
viability, T/C [15]: 89%
viability, T/C [16]: 98.6%
viability, T/C [17]: 93.8%
viability, T/C [18]: 9.92%
viability, T/C [19]: 0.68%
viability, T/C [20]: 5.6%
viability, T/C [21]: 5.7%
viability, T/C [22]: 0.77%
viability, T/C [23]: 0.88%
viability, T/C [24]: 1.46%
viability, T/C [25]: 0.9%
viability, T/C [26]: 0.86%
viability, T/C [27]: 1.07%
viability, T/C [28]: 0.81%
viability, T/C [29]: 1.05%
viability, T/C [30]: 0.73%
viability, T/C [31]: 0.67%
viability, T/C [32]: 0.49%
viability, T/C [33]: 0.43%
viability, T/C [34]: 0.49%
viability, T/C [35]: 0.56%
viability, T/C [36]: 0.29%

CC1COCCN1c1cc(C2(S(C)(=N)=O)CC2)nc(-c2ccnc3[nH]ccc23)n1 (stereo unspecified) + CN1CCN(c2cc(C(=O)Nc3cc4cc(-c5cnn(C)c5)ccc4cn3)ccn2)CC1
IC50 (second compound 0.0316 µM): > 10000 nM
IC50 (second compound 0.1 µM): > 10000 nM
IC50 (second compound 0.316 µM): 6970 nM
IC50 (second compound 1 µM): < 31.6 nM
IC50 (second compound 3.16 µM): < 31.6 nM
IC50 (second compound 10 µM): < 31.6 nM
viability, T/C [1]: 99.9%
viability, T/C [2]: 109%
viability, T/C [3]: 98.3%
viability, T/C [4]: 106%
viability, T/C [5]: 90.3%
viability, T/C [6]: 66.6%
viability, T/C [7]: 96.6%
viability, T/C [8]: 109%
viability, T/C [9]: 103%
viability, T/C [10]: 90.8%
viability, T/C [11]: 75.7%
viability, T/C [12]: 53.6%
viability, T/C [13]: 94.2%
viability, T/C [14]: 93.3%
viability, T/C [15]: 98.9%
viability, T/C [16]: 86.7%
viability, T/C [17]: 71.2%
viability, T/C [18]: 40.5%
viability, T/C [19]: 3.94%
viability, T/C [20]: 1.1%
viability, T/C [21]: 0.55%
viability, T/C [22]: 1.34%
viability, T/C [23]: 1.62%
viability, T/C [24]: 0.81%
viability, T/C [25]: 0.77%
viability, T/C [26]: 0.89%
viability, T/C [27]: 1.57%
viability, T/C [28]: 0.66%
viability, T/C [29]: 0.84%
viability, T/C [30]: 0.92%
viability, T/C [31]: 0.55%
viability, T/C [32]: 0.49%
viability, T/C [33]: 0.53%
viability, T/C [34]: 0.5%
viability, T/C [35]: 0.6%
viability, T/C [36]: 0.44%
